Source: patent US20260130933A1, “PHARMACEUTICAL COMPOSITION FOR PREVENTION OR TREATMENT OF NEPHROPATHY AND/OR DIABETES MELLITUS, COMPRISING ENAVOGLIFLOZIN” (DAEWOONG PHARMACEUTICAL CO., LTD., priority 2022, published 2026)

Experiment: Example 3: phase 3 trial, enavogliflozin 0.3 mg vs dapagliflozin 10 mg once a day for 24 weeks added to metformin and gemigliptin in patients with type 2 diabetes (same endpoints, rescue drug)
Type: in vivo, human
Settings: week 18
Method: 1) when Metformin (≥1,000 mg/Day) was Administered at a Constant Dose for at Least 8 Weeks Prior to Pre-Visit (Pre-Screening) • Metformin (≥1,000 mg/day) and gemigliptin (50 mg/day) were co-administered during the 8-week stabilization period. […] 4) when Metformin (≥1,000 mg/Day) and Gemigliptin (50 mg/Day) were Co-Administered at Constant Doses for at Least 8 Weeks Prior to Pre-Visit (Prescreening) • Without a separate stabilization period, Pre-visit (pre-screening) was Visit 1 (screening).
Subjects who met the inclusion/exclusion criteria continued to receive metformin and gemigliptin while receiving a placebo of the clinical trial drug in a single-blind (subject-blinded) state for a 2-week run-in period.
Here, the randomized subjects were stratified according to the administration therapy (co-administration with two or less agents (one or two agents) or three or more agents) of a conventional hypoglycemic agent (before washout of another hypoglycemic agent) within 24 weeks prior to obtaining written informed consent and by an HbA1c value (<8% or ≥8%) at Visit 1 (screening) measured in the central laboratory.
The randomized subjects were administered two tablets of the clinical trial drug corresponding to each administration group once a day, and then visited the institution at weeks 6, 12, 18, and 24 during the 24-week administration period to conduct efficacy and safety assessments. In addition, during the clinical trial period, they were instructed to exercise regularly and control their diet without changing their daily life patterns.
• 1) Change in HbA1c at week 24 after administration of clinical trial drug compared to Visit 2 (randomization)
• 1) Change in HbA1c at each time point of weeks 6, 12, and 18 after administration of clinical trial drug compared to Visit 2 (randomization) • 2) Change in FPG at each time point of weeks 6, 12, 18, and 24 after administration of clinical trial drug compared to Visit 2 (randomization) • 3) Proportion of subjects achieving HbA1c<7% at each time point of weeks 6, 12, 18, and 24 after administration of clinical trial drug • 4) Proportion of subjects achieving HbA1c<6.5% at each time point of weeks 6, 12, 18, and 24 after administration of clinical trial drug • 5) Proportion of subjects achieving therapeutic response (HbA1c change (HbA1c at Visit 2—HbA1c at each evaluation time point)>0.5% or HbA1c<7% at each evaluation time point compared to Visit 2 (randomization)) at each time point of weeks 6, 12, 18, and 24 after administration of clinical trial drug • 6) Proportion of subjects achieving therapeutic response (HbA1c change (HbA1c at Visit 2—HbA1c at each evaluation time point)>0.7% or HbA1c<7% at each evaluation time point compared to Visit 2 (randomization)) at each time point of weeks 6, 12, 18, and 24 after administration of clinical trial drug • 7) Proportion of subjects achieving therapeutic response (HbA1c change (HbA1c at Visit 2—HbA1c at each evaluation time point)>1% or HbA1c<7% at each evaluation time point compared to Visit 2 (randomization)) at each time point of weeks 6, 12, 18, and 24 after administration of clinical trial drug

[1] = modified per-protocol set 2, enavogliflozin 0.3 mg, dapagliflozin 10 mg
[2] = per-protocol set, enavogliflozin 0.3 mg vs dapagliflozin 10 mg
[3] = per-protocol set, enavogliflozin 0.3 mg, dapagliflozin 10 mg

SMILES: OC[C@H]1O[C@@H](c2cc(Cc3ccc(C4CC4)cc3)c(Cl)c3c2CCO3)[C@H](O)[C@@H](O)[C@@H]1O [Enavogliflozin, (2S,3R,4R,5S,6R)-2-(7-chloro-6 (4-cyclopropylbenzyl)-2,3-dihydrobenzofuran-4-yl)-6-(hydroxymethyl)tetrahydro-2H-pyran-3,4,5-triol]
- Change from baseline in diastolic blood pressure, Median (modified per-protocol set 2): −5.00 mmHg
- Diastolic blood pressure, Mean (modified per-protocol set 2): 72.53 mmHg
- Diastolic blood pressure, Median (modified per-protocol set 2): 72.00 mmHg
- Change from baseline in systolic blood pressure, ANCOVA LS mean difference (modified per-protocol set 2, enavogliflozin 0.3 mg vs dapagliflozin 10 mg): −1.66 mmHg
- Change from baseline in systolic blood pressure, ANCOVA LS mean [1]: −6.82 mmHg
- Change from baseline in systolic blood pressure, Mean [1]: −7.37 mmHg
- Change from baseline in systolic blood pressure, Median [1]: −7.00 mmHg
- Systolic blood pressure, Mean [1]: 119.95 mmHg
- Systolic blood pressure, Median [1]: 119.00 mmHg
- Adiponectin, Mean (per-protocol set): 7.03 µg/mL
- Adiponectin, Median (per-protocol set): 6.26 µg/mL
- Change from baseline in HOMA-IR, ANCOVA LS mean (per-protocol set): −1.14
- Change from baseline in HOMA-IR, LS mean difference (enavogliflozin − dapagliflozin) (per-protocol set): −0.13
- Change from baseline in HOMA-IR, Mean (per-protocol set): −1.16
- Change from baseline in HOMA-IR, Median (per-protocol set): −0.82
- Change from baseline in HOMA-β, ANCOVA LS mean (per-protocol set): 5.97
- Change from baseline in HOMA-β, LS mean difference (enavogliflozin − dapagliflozin) (per-protocol set): 1.48
- Change from baseline in HOMA-β, Mean (per-protocol set): 6.09
- Change from baseline in HOMA-β, Median (per-protocol set): 4.10
- Change from baseline in UACR, ANCOVA LS mean (per-protocol set): -11.08 g/kg
- Change from baseline in UACR, LS mean difference (enavogliflozin − dapagliflozin) (per-protocol set): -2.18 g/kg
- Change from baseline in UACR, Mean (per-protocol set): -12.07 g/kg
- Change from baseline in UACR, Median (per-protocol set): -1.50 g/kg
- Change from baseline in UGCR, ANCOVA LS mean (per-protocol set): 58.74 mg/mg
- Change from baseline in UGCR, LS mean difference (enavogliflozin − dapagliflozin) (per-protocol set): 13.34 mg/mg
- Change from baseline in UGCR, Mean (per-protocol set): 57.23 mg/mg
- Change from baseline in UGCR, Median (per-protocol set): 54.56 mg/mg
- Change from baseline in adiponectin, ANCOVA LS mean (per-protocol set): 0.78 µg/mL
- Change from baseline in adiponectin, LS mean difference (enavogliflozin − dapagliflozin) (per-protocol set): 0.42 µg/mL
- Change from baseline in adiponectin, Mean (per-protocol set): 0.80 µg/mL
- Change from baseline in adiponectin, Median (per-protocol set): 0.60 µg/mL
- Change from baseline in leptin, ANCOVA LS mean (per-protocol set): -1.46 ng/mL
- Change from baseline in leptin, LS mean difference (enavogliflozin − dapagliflozin) (per-protocol set): -0.40 ng/mL
- Change from baseline in leptin, Mean (per-protocol set): -1.63 ng/mL
- Change from baseline in leptin, Median (per-protocol set): -0.89 ng/mL
- HOMA-IR (insulin resistance), Mean (per-protocol set): 1.74
- HOMA-IR (insulin resistance), Median (per-protocol set): 1.42
- HOMA-β (beta-cell function), Mean (per-protocol set): 49.26
- HOMA-β (beta-cell function), Median (per-protocol set): 40.00
- Leptin, Mean (per-protocol set): 8.87 ng/mL
- Leptin, Median (per-protocol set): 5.86 ng/mL
- UACR, Mean (per-protocol set): 25.02 g/kg
- UACR, Median (per-protocol set): 11.30 g/kg
- UGCR, Mean (per-protocol set): 57.96 mg/mg
- UGCR, Median (per-protocol set): 54.71 mg/mg
- Achieving HbA1c target of <6.5%, odds ratio (logistic regression model) [2]: 1.20
- Achieving HbA1c target of <7%, odds ratio (logistic regression model) [2]: 1.36
- Change from baseline in FPG, ANCOVA LS mean difference [2]: -4.22 mg/dL
- Change from baseline in HbA1c, ANCOVA LS mean difference [2]: −0.07 % p
- Change from baseline in body weight, ANCOVA LS mean difference [2]: -0.15 kg
- Change from baseline in fasting C-peptide, ANCOVA LS mean difference [2]: -0.02 ng/mL
- Therapeutic glycemic response 1, odds ratio (logistic regression model) [2]: 1.02
- Therapeutic glycemic response 2, odds ratio (logistic regression model) [2]: 1.09
- Therapeutic glycemic response 3, odds ratio (logistic regression model) [2]: 1.22
- Body weight, Mean [3]: 66.18 kg
- Change from baseline in FPG, ANCOVA LS mean [3]: -27.77 mg/dL
- Change from baseline in FPG, Mean [3]: -28.00 mg/dL
- Change from baseline in FPG, Median [3]: -24.00 mg/dL
- Change from baseline in HbA1c, ANCOVA LS mean [3]: −0.83 % p
- Change from baseline in HbA1c, Mean [3]: −0.84 % p
- Change from baseline in HbA1c, Median [3]: −0.72 % p
- Change from baseline in body weight, ANCOVA LS mean [3]: -3.16 kg
- Change from baseline in body weight, Mean [3]: -3.10 kg
- Change from baseline in body weight, Median [3]: -2.90 kg
- Change from baseline in fasting C-peptide, ANCOVA LS mean [3]: -0.08 ng/mL
- Change from baseline in fasting C-peptide, Mean [3]: -0.09 ng/mL
- Change from baseline in fasting C-peptide, Median [3]: -0.10 ng/mL
- FPG, Mean [3]: 111.10 mg/dL
- FPG, Median [3]: 109.00 mg/dL
- Fasting C-peptide, Mean [3]: 0.64 ng/mL
- Fasting C-peptide, Median [3]: 0.60 ng/mL
- HbA1c, Mean [3]: 6.95%
